According to US20190151403A1, “NOVEL CYCLOSPORIN DERIVATIVES AND USES THEREOF” (S&T Global Inc., priority 2016, published 2019):
pEC50, pIC50: −log10 of the molar value. Read-outs that look alike come from different tables or passages of the source. Starred links: 1 amine or outer side, 2 acyl side, 3 side chain; linkers in the order of their positions; H or OH if unused. Non-standard residues stand in square brackets, D forms with d. Residues, ends and D or L forms follow the SMILES beside them. ξ: configuration not given here. *: point of attachment. NMeThr(4R-Me,4-(CH2)6NHAc) = CN[C@H](C(=O)O)[C@H](O)[C@H](C)CCCCCCNC(C)=O; MeBmt = C/C=C/C[C@@H](C)[C@@H](O)[C@H](NC)C(=O)O; X1 = CCN(CC)CCS[C@H](C(=O)[*:2])N(C)[*:1]; NMeIle(3ξ) = CCC(C)[C@H](NC)C(=O)O; NMeL = CN[C@@H](CC(C)C)C(=O)O; NMeV = CN[C@H](C(=O)O)C(C)C; dNMeC = CN[C@H](CS)C(=O)O; dNMeS = CN[C@H](CO)C(=O)O; dNMeA = CN[C@H](C)C(=O)O; Abu = CC[C@H](N)C(=O)O; Butyl(4-OH) = OCCCC*

Experiments:
[1] = tested on: HCV replicon in cell line ET (luc-ubi-neo/ET), Huh7 human hepatoma cell line; test: HCV subgenomic replicon assay (luciferase end point); assay type: cell-based
Method: Anti-HCV activity of cyclosporine derivatives were evaluated in the HCV subgenomic replicon assay. The assay use the cell line ET (luc-ubi-neo/ET), which is a Huh7 human hepatoma cell line harboring an HCV replicon with a stable luciferase (Luc) reporter. HCV RNA replication was assessed by quantifying HCV replicon-derived luciferase activity. The antiviral activity of cyclosporine analogs were evaluated after drug treatment to derive EC50 and EC90 values by using the luciferase end point (Krieger, N., et al., 2001, J. Viral. 75, 4614-4624; Pietschmann, T., et al., 2002, J. Viral. 76, 4008-4021; each of which is incorporated herein by reference). Cytotoxicity was assessed in parallel.

Cyclophilin D (CyPD) = Cyclophilin D (CyPD) (Homo sapiens, UniProt P30405); test: Cyclophilin D PPIase inhibition assay; assay type: biochemical
Human recombinant CypA = target: T1, Human recombinant CypA (Homo sapiens, UniProt P62937); test: Cyclophilin A PPIase inhibition, α-chymotrypsin-coupled assay; assay type: biochemical; conditions: 10 nM human recombinant CypA, 5° C, succinyl-AAPF-pNA substrate
T1 construct: purchased Atgen
Method: Inhibition of CyPA isomerase activity was assessed using the α-chymotrypsin-coupled assay adapted to a 96-well plate format. Human recombinant CypA (Atgen) was dissolved to 10 nM in isomerase buffer (50 mM Hepes, 100 mM NaCl, 1 mg/ml bovine serum albumin, 1 mg/ml a-chymotrypsin; pH 8). Succinyl-AAPF-pNA peptide substrate (Sigma) was dissolved to 3.2 mM in dried LiCl/trifluoroethanol. […] All solutions were equilibrated, and reactions conducted at 5° C. Reactions were initiated by mixing 95 μL reaction mix with 5 μL peptide preloaded in multiple wells of 96-well plates and measuring OD405 nm in each well at 6-sec intervals for 6 min using a BMG Polarstar Galaxy plate reader. Data were fitted with Graphpad Prism 6.0 to obtain first-order rate constants. Enzyme catalyzed rate constants were calculated by subtracting the rate constant from uncatalyzed reactions (no CypA), and the catalytic rate constants plotted as a function of inhibitor concentration to obtain IC50s (see […] et al., 2015, PLOS ONE).

HCV = conditions: reported by Hopkins et al. 2010; read-out: in vitro anti-HCV activity (EC50); cited from earlier work
cyclophilin A = cyclophilin A (Homo sapiens, UniProt P62937); conditions: published, Gallay et al. 2016; read-out: cyclophilin binding EC50 for cyclophilin A; cited from earlier work
[2] = tested on: multi-genotype HCV GT1a to 4a; conditions: cited from earlier work
[3] = Hepatitis C virus, Huh-7, read-out: Antiviral activity
[4] = HCV subgenomic replicon, Huh7 ET cells, luciferase end point, read-out: Antiviral activity

Sequence of Cyclophilin D (CyPD) (P30405 30-207, species assumed): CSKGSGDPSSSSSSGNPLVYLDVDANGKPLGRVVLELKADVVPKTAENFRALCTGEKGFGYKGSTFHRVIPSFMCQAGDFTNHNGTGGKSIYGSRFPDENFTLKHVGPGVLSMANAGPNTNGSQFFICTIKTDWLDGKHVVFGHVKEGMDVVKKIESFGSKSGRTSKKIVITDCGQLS
T1 sequence (P62937 whole entry): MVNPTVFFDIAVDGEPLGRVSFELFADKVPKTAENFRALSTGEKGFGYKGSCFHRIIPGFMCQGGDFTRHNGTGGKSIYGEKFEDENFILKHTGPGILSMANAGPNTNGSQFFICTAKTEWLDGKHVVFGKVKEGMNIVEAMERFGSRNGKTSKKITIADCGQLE
Sequence of cyclophilin A (P62937 whole entry): as above

Compound `C/C=C/C[C@@H](C)[C@@H](O)[C@H]1C(=O)N[C@@H](CC)C(=O)N(C)[C@H](SCCN(C)C)C(=O)N(C)[C@@H](CC(C)(C)O)C(=O)N[C@@H](C(C)C)C(=O)N(C)[C@@H](CC(C)C)C(=O)N[C@@H](C)C(=O)N[C@H](C)C(=O)N(C)[C@@H](CC(C)C)C(=O)N(C)[C@@H](CC(C)C)C(=O)N(C)[C@@H](C(C)C)C(=O)N1C` has a pIC50 [1, 3] of 7.05 to 7.46 and a pEC50 (Cyclophilin D (CyPD)) of 8.00 to 8.40.
For `C/C=C/C[C@@H](C)[C@@H](O)[C@H]1C(=O)N[C@@H](CC)C(=O)N(C)[C@H](SCCN(CC)CC)C(=O)N(C)[C@@H](C(C)CC)C(=O)N[C@@H](C(C)C)C(=O)N(C)[C@@H](CC(C)C)C(=O)N[C@@H](C)C(=O)N[C@H](C)C(=O)N(C)[C@@H](CC(C)C)C(=O)N(C)[C@@H](CC(C)C)C(=O)N(C)[C@@H](C(C)C)C(=O)N1C` (stereo partly drawn) [(R)-2-(N,N-Diethylamino)ethylthio-Sar]-3-[N-MeIle]-4-cyclosporin] (cyclo(A[dA][NMeL][NMeL][NMeV][MeBmt][Abu][X1][NMeIle(3ξ)]V[NMeL])), the pIC50 [1, 4] was > 7.46.
With `C/C=C/C[C@@H](C)[C@@H](O)[C@H]1C(=O)N[C@@H](CC)C(=O)N(C)[C@H](C)C(=O)N(CC)[C@@H](C(C)C)C(=O)N[C@@H](C(C)C)C(=O)N(C)[C@@H](CC(C)C)C(=O)N[C@@H](C)C(=O)N[C@H](C)C(=O)N(C)[C@@H](CC(C)C)C(=O)N(C)[C@@H](CC(C)C)C(=O)N(C)[C@@H](C(C)C)C(=O)N1C` [Alisporivir] the pIC50 (Human recombinant CypA) was > 8.40, the pIC50 [1, 3] was > 7.46 and the pEC50 (Cyclophilin D (CyPD)) was > 8.40.
For `C/C=C/C[C@@H](C)[C@@H](O)[C@H]1C(=O)N[C@@H](CC)C(=O)N(C)[C@H](SCCN(C)C)C(=O)N(C)[C@@H](CC(C)(C)O)C(=O)N[C@@H](C(C)C)C(=O)N(C)[C@@H](CC(C)C)C(=O)N[C@@H](C)C(=O)N[C@H](C)C(=O)N(C)[C@@H](CC(C)C)C(=O)N(C)[C@@H](CC(C)C)C(=O)N(C)[C@@H](C(C)C)C(=O)N1C` [SCY-635], the pEC50 (HCV) is given as 7.00.
In the case of `CC=CCC(C)C(O)C1C(=O)NC(CC)C(=O)N(C)C(CSCCCCO)C(=O)N(C)C(CC(C)(C)O)C(=O)NC(C(C)C)C(=O)N(C)C(CC(C)C)C(=O)NC(C)C(=O)NC(C)C(=O)N(C)C(CC(C)C)C(=O)N(C)C(CC(C)C)C(=O)N(C)C(C(C)C)C(=O)N1C` (centres unmarked) [STG-175], the pEC50 (cyclophilin A) is given as 9.22, the “cross-resistance with direct anti-viral agents (DAAs)” value [2] is given as “No cross-resistance is observed” and the “viral replication rebound after cessation of drug treatment” value ([2]; compared with Sofosbuvir) is given as “no viral replication rebound is observed”. The pEC50 ([2]; multi-genotype HCV GT1a to 4a, published, Gallay et al. 2016, read-out: anti-HCV activity EC50) was 7.41 to 7.94.
For `CC[C@@H]1NC(=O)[C@H]([C@H](O)[C@H](C)CCCCCCNC(C)=O)N(C)C(=O)[C@H](C(C)C)N(C)C(=O)[C@H](CC(C)C)N(C)C(=O)[C@H](CC(C)C)N(C)C(=O)[C@@H](C)NC(=O)[C@H](C)NC(=O)[C@H](CC(C)C)N(C)C(=O)[C@H](C(C)C)NC(=O)[C@H](CC(C)C)N(C)C(=O)[C@@H](C)N(C)C1=O` [[8-(2-Acetamidoethyl)-6,7-dihydro-MeBmt]-1-[(R)-Methyl]-3-cyclosporin] (cyclo(A[dA][NMeL][NMeL][NMeV][NMeThr(4R-Me,4-(CH2)6NHAc)][Abu][dNMeA][NMeL]V[NMeL])), the pIC50 [1, 3] was > 7.46.
With `CC[C@@H]1NC(=O)[C@H]([C@H](O)[C@H](C)CCCCCCNC(C)=O)N(C)C(=O)[C@H](C(C)C)N(C)C(=O)[C@H](CC(C)C)N(C)C(=O)[C@H](CC(C)C)N(C)C(=O)[C@@H](C)NC(=O)[C@H](C)NC(=O)[C@H](CC(C)C)N(C)C(=O)[C@H](C(C)C)NC(=O)[C@H](CC(C)C)N(C)C(=O)[C@@H](CO)N(C)C1=O` [[8-(2-Acetamidoethyl)-6,7-dihydro-MeBmt]-1-[(R)-hydroxymethyl-Sar]-3-cyclosporin] (cyclo(A[dA][NMeL][NMeL][NMeV][NMeThr(4R-Me,4-(CH2)6NHAc)][Abu][dNMeS][NMeL]V[NMeL])) the pIC50 [1, 3] was > 7.46.
In the case of `CC[C@@H]1NC(=O)[C@H]([C@H](O)[C@H](C)CCCCCCNC(C)=O)N(C)C(=O)[C@H](C(C)C)N(C)C(=O)[C@H](CC(C)C)N(C)C(=O)[C@H](CC(C)C)N(C)C(=O)[C@@H](C)NC(=O)[C@H](C)NC(=O)[C@H](CC(C)C)N(C)C(=O)[C@H](C(C)C)NC(=O)[C@H](CC(C)C)N(C)C(=O)[C@@H](CSCCCCO)N(C)C1=O` [[8-(2-Acetamidoethyl)-6,7-dihydro-MeBmt]-1-[(S)-(4-hydroxybutylthio)methyl-Sar]-3-cyclosporin] (cyclo(A[dA][NMeL][NMeL][NMeV][NMeThr(4R-Me,4-(CH2)6NHAc)][Abu][dNMeC](Butyl(4-OH))[NMeL]V[NMeL])), the pIC50 (Human recombinant CypA) was > 8.40, the pIC50 [1, 3] was > 7.46 and the pEC50 (Cyclophilin D (CyPD)) was > 8.40.
In the case of `CC[C@@H]1NC(=O)[C@H]([C@H](O)[C@H](C)CCCCCCNC(C)=O)N(C)C(=O)[C@H](C(C)C)N(C)C(=O)[C@H](CC(C)C)N(C)C(=O)[C@H](CC(C)C)N(C)C(=O)[C@@H](C)NC(=O)[C@H](C)NC(=O)[C@H](CC(C)C)N(C)C(=O)[C@H](C(C)C)NC(=O)[C@H](CC(C)(C)O)N(C)C(=O)CN(C)C1=O` [[8-(2-Acetamidoethyl)-6,7-dihydro-MeBmt]-1-[(γ-hydroxy)-N-MeLeu]-4-cyclosporin], the pIC50 [1, 3] was > 7.46.
In the case of `CC[C@@H]1NC(=O)[C@H]([C@H](O)[C@H](C)CCCCCCNC(C)=O)N(C)C(=O)[C@H](C(C)C)N(C)C(=O)[C@H](CC(C)C)N(C)C(=O)[C@H](CC(C)C)N(C)C(=O)[C@@H](C)NC(=O)[C@H](C)NC(=O)[C@H](CC(C)C)N(C)C(=O)[C@H](C(C)C)NC(=O)[C@H](CC(C)C)N(C)C(=O)CN(C)C1=O` [[8-(2-Acetamidoethyl)-6,7-dihydro-MeBmt]-1-cyclosporin], the pIC50 [1, 3] was > 7.46.
In the case of `C/C=C/C[C@@H](C)[C@@H](O)[C@H]1C(=O)N[C@@H](CC)C(=O)N(C)[C@H](CSCCCCO)C(=O)N(C)[C@@H](CC(C)(C)O)C(=O)N[C@@H](C(C)C)C(=O)N(C)[C@@H](CC(C)C)C(=O)N[C@@H](C)C(=O)N[C@H](C)C(=O)N(C)[C@@H](CC(C)C)C(=O)N(C)[C@@H](CC(C)C)C(=O)N(C)[C@@H](C(C)C)C(=O)N1C` [[(S)-(4-Hydroxylbutylthio)methyl-Sar]-3-[(γ-hydroxy)-N-MeLeu]-4-cyclosporin], the pIC50 (Human recombinant CypA) was > 8.40 and the pEC50 (Cyclophilin D (CyPD)) was > 8.40.
`C/C=C/C[C@@H](C)[C@@H](O)[C@H]1C(=O)N[C@@H](CC)C(=O)N(C)CC(=O)N(C)[C@@H]([C@@H](C)CC)C(=O)N[C@@H](C(C)C)C(=O)N(C)[C@@H](CC(C)C)C(=O)N[C@@H](C)C(=O)N[C@H](C)C(=O)N(C)[C@@H](CC(C)C)C(=O)N(C)[C@@H](CC(C)C)C(=O)N(C)[C@@H](C(C)C)C(=O)N1C` [[N-MeIle]-4-cyclosporin (SDZ-NIM-811), N-MeIle-4-Cyclosporin] showed a pIC50 [1, 3] of 6.60 to 7.05.
`C/C=C/C[C@@H](C)[C@@H](O)[C@H]1C(=O)N[C@@H](CC)C(=O)N(C)CC(=O)N(C)[C@@H](C(C)C)C(=O)N[C@@H](C(C)C)C(=O)N(C)[C@@H](CC(C)C)C(=O)N[C@@H](C)C(=O)N[C@H](C)C(=O)N(C)[C@@H](CC(C)C)C(=O)N(C)[C@@H](CC(C)C)C(=O)N(C)[C@@H](C(C)C)C(=O)N1C` [[N-MeVal]-4-cyclosporin (SDZ 220-384), N-MeVal-4-Cyclosporin] gave a pIC50 [1, 4] of 6.60 to 7.05.
For “[8-(2-Acetamidoethyl)-6,7-dihydro-MeBmt]-1-[(S)-(4-hydroxybutylthio)methyl-Sar]-3-[(γ-hydroxy)-N-MeLeu]-4-cyclosporin”, the pIC50 [1, 4] was > 7.46.
